US10710978B2, “STK4 inhibitors for treatment of hematologic malignancies” (Dana-Farber Cancer Institute, Inc., priority 2015, dated 2020)
Like-named read-outs stand apart in the source and are kept apart here.

What was measured:
Experiment in all cases: KiNativ assay
Type in all cases: binding
[1] = target: CDC2 (Homo sapiens (Human), UniProt P06493); conditions: H929 live cell
Protocol: (§1) Biochemical IC50s of the compounds of the present disclosure against various kinases were measured in a KiNativ assay. Compounds were screened in duplicate at 10 μM in H929 live cell. IC50 was measured via Mass spectroscopy (MS).

[2] = tested on: NEK6, NEK7; conditions: H929 live cell
Protocol: as §1

[3] = target: PIK3CG (Homo sapiens (Human), UniProt P48736); conditions: H929 live cell
Protocol: as §1

[4] = target: MST2 (Homo sapiens (Human), UniProt Q13188); conditions: H929 live cell
Protocol: as §1

[5] = target: JAK1 domain1 (Homo sapiens (Human), UniProt P23458); conditions: H929 live cell
Protocol: as §1

[6] = target: CK1g3 (Homo sapiens (Human), UniProt Q9Y6M4); conditions: H929 live cell
Protocol: as §1

[7] = target: STLK5 (Homo sapiens (Human), UniProt Q7RTN6); conditions: H929 live cell
Protocol: as §1

[8] = target: DGKH (Homo sapiens (Human), UniProt Q86XP1); conditions: H929 live cell, read-out: inhibition (10 μM)
Protocol: as §1

[9] = target: IKKa (Homo sapiens (Human), UniProt O15111); conditions: H929 live cell
Protocol: as §1

[10] = target: FRAP (Homo sapiens (Human), UniProt P42345); conditions: H929 live cell
Protocol: as §1

[11] = target: ULK1 (Homo sapiens (Human), UniProt O75385); conditions: H929 live cell
Protocol: as §1

[12] = target: NEK4 (Homo sapiens (Human), UniProt P51957); conditions: H929 live cell
Protocol: as §1

[13] = target: MAP3K5 (Homo sapiens (Human), UniProt Q99683); conditions: H929 live cell
Protocol: as §1

[14] = target: CaMK2g (Homo sapiens (Human), UniProt Q13555); conditions: H929 live cell
Protocol: as §1

[15] = target: OSR1 (Homo sapiens (Human), UniProt O95747); conditions: H929 live cell
Protocol: as §1

[16] = tested on: ZC1/HGK, ZC2/TNIK, ZC3/MINK; conditions: H929 live cell
Protocol: as §1

[17] = target: CaMKK2 (Homo sapiens (Human), UniProt Q96RR4); conditions: H929 live cell
Protocol: as §1

[18] = target: PKR (Homo sapiens (Human), UniProt P19525); conditions: H929 live cell
Protocol: as §1

[19] = target: LATS1 (Homo sapiens (Human), UniProt O95835); conditions: H929 live cell
Protocol: as §1

[20] = target: MPSK1 (Homo sapiens (Human), UniProt O75716); conditions: H929 live cell, read-out: inhibition (10 μM)
Protocol: as §1

[21] = target: IRAK4 (Homo sapiens (Human), UniProt Q9NWZ3); conditions: H929 live cell
Protocol: as §1

[22] = target: KHS1 (Homo sapiens (Human), UniProt Q9Y4K4); conditions: H929 live cell
Protocol: as §1

[23] = target: GSK3B (Homo sapiens (Human), UniProt P49841); conditions: H929 live cell
Protocol: as §1

[24] = target: ACK (Homo sapiens (Human), UniProt Q07912); conditions: H929 live cell
Protocol: as §1

[25] = target: MAP2K5 (Homo sapiens (Human), UniProt Q13163); conditions: H929 live cell
Protocol: as §1

[26] = target: LYN (Homo sapiens (Human), UniProt P07948); conditions: H929 live cell
Protocol: as §1

[27] = target: STLK3 (Homo sapiens (Human), UniProt Q9UEW8); conditions: H929 live cell
Protocol: as §1

[28] = target: PKCi (Homo sapiens (Human), UniProt P41743); conditions: H929 live cell
Protocol: as §1

[29] = target: PFTAIRE1 (Homo sapiens (Human), UniProt O94921); conditions: H929 live cell
Protocol: as §1

[30] = target: CDK5 (Homo sapiens (Human), UniProt Q00535); conditions: H929 live cell
Protocol: as §1

[31] = tested on: MST4, YSK1; conditions: H929 live cell
Protocol: as §1

[32] = tested on: JNK1, JNK2, JNK3; conditions: H929 live cell
Protocol: as §1

[33] = target: SGK3 (Homo sapiens (Human), UniProt Q96BR1); conditions: H929 live cell
Protocol: as §1

Sequence of IKKa (O15111 whole entry): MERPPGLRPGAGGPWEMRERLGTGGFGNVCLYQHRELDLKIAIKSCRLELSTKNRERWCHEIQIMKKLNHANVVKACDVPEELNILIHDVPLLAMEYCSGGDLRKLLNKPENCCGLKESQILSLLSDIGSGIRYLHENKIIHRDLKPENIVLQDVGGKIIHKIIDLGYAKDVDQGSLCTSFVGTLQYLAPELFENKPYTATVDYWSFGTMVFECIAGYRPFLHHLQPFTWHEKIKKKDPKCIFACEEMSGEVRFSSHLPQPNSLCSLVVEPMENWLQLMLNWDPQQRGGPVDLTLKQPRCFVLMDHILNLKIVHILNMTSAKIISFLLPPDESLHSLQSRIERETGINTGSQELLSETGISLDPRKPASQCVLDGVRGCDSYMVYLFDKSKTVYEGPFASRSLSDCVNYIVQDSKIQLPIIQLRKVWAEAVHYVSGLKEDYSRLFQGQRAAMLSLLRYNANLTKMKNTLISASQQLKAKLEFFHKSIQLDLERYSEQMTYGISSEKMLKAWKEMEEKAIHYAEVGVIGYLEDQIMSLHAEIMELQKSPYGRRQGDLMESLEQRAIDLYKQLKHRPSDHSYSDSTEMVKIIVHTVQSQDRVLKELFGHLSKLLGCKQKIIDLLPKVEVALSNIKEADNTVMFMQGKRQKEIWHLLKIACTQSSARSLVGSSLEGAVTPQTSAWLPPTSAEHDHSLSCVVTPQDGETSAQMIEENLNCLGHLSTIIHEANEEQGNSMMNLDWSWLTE
Sequence of ULK1 (O75385 whole entry): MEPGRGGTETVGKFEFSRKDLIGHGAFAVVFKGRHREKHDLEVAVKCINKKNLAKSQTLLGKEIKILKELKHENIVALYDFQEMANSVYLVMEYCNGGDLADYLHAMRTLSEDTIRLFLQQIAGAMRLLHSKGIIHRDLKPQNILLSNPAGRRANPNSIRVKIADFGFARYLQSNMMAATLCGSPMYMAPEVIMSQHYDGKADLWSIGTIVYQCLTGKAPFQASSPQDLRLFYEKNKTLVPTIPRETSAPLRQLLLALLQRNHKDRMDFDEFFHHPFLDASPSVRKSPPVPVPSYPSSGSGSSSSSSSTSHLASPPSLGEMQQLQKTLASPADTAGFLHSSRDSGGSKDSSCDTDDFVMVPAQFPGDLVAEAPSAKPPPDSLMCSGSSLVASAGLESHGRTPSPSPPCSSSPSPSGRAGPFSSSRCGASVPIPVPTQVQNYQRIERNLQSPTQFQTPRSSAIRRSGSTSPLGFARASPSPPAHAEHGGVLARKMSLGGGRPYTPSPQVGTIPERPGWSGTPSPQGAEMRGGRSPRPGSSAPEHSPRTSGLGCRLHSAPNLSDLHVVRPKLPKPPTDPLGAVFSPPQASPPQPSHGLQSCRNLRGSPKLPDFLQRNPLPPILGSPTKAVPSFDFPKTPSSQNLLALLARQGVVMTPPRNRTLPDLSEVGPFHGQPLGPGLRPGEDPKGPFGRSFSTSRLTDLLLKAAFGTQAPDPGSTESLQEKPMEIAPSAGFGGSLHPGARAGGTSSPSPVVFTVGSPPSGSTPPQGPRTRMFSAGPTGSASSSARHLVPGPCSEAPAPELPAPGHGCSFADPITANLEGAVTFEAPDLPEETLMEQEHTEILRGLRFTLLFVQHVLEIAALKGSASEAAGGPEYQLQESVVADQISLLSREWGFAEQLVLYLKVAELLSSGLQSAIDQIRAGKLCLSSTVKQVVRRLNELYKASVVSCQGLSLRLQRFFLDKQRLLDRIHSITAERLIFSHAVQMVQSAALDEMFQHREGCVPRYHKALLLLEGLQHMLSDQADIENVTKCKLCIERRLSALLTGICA
Sequence of IRAK4 (Q9NWZ3 whole entry): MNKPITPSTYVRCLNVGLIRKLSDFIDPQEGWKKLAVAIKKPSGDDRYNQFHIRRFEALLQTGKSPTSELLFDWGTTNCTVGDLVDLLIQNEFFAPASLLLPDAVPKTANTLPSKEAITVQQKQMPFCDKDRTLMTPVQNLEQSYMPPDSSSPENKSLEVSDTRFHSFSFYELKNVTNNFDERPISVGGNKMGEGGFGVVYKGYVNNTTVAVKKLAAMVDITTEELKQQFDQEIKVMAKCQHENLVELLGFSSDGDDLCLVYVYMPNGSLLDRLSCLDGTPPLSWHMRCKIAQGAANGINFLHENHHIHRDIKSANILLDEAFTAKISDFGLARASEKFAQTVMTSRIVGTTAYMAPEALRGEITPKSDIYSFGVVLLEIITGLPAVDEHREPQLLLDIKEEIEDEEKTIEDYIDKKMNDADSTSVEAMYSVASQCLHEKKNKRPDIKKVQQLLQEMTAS
Sequence of CDK5 (Q00535 whole entry): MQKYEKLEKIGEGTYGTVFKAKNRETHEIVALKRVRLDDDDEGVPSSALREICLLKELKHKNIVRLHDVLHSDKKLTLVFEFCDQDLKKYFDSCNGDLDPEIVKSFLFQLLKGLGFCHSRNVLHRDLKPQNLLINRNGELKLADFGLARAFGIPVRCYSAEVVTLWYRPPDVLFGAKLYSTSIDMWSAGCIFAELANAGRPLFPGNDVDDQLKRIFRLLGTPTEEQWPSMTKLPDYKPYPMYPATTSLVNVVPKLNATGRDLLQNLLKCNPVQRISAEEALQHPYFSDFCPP
Sequence of KHS1 (Q9Y4K4 whole entry): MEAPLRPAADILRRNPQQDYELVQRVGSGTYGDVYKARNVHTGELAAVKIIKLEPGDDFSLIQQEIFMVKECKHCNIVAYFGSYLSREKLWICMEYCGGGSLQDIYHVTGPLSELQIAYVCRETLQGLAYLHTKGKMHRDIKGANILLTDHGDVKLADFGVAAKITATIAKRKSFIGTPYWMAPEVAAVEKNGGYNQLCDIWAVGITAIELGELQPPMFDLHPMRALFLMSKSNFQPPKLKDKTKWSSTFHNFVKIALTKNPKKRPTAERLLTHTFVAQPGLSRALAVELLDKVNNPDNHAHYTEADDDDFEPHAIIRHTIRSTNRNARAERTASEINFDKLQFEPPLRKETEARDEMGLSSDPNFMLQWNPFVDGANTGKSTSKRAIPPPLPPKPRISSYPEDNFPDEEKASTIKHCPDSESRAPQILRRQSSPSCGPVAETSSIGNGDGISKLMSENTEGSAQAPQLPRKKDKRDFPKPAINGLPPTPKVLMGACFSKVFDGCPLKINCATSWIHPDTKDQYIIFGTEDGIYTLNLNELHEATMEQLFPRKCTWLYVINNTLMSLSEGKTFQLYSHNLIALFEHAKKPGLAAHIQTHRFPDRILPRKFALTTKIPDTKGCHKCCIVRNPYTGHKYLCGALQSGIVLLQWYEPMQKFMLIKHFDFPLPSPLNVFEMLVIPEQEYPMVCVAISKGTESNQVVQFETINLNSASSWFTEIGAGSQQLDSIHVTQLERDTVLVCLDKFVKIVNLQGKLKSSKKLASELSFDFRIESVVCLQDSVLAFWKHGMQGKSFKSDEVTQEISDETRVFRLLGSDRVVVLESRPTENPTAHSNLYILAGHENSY
Sequence of STLK5 (Q7RTN6 whole entry): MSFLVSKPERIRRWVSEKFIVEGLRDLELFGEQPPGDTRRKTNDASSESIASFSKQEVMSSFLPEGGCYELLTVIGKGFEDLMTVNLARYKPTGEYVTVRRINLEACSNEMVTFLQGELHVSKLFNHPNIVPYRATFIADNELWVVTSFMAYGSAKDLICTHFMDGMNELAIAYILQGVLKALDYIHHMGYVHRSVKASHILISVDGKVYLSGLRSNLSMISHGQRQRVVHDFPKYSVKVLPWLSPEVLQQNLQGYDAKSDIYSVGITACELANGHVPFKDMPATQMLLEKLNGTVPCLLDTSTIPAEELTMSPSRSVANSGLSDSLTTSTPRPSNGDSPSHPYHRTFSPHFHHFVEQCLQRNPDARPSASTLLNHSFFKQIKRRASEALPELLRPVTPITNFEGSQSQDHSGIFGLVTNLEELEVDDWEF
Sequence of SGK3 (Q96BR1 whole entry): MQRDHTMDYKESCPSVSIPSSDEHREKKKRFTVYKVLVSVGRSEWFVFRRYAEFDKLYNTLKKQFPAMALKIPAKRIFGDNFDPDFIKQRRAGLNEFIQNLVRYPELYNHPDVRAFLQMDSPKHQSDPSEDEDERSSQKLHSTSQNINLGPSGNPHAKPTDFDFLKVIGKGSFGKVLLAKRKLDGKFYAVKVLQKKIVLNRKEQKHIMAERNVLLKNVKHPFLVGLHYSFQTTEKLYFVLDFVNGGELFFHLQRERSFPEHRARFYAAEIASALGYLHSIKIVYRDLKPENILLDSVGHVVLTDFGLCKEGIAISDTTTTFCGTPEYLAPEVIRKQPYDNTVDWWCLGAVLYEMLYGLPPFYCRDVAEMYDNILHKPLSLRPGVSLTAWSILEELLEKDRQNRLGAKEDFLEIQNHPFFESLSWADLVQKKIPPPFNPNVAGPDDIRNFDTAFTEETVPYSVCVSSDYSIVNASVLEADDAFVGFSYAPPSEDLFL
Sequence of PKCi (P41743 whole entry): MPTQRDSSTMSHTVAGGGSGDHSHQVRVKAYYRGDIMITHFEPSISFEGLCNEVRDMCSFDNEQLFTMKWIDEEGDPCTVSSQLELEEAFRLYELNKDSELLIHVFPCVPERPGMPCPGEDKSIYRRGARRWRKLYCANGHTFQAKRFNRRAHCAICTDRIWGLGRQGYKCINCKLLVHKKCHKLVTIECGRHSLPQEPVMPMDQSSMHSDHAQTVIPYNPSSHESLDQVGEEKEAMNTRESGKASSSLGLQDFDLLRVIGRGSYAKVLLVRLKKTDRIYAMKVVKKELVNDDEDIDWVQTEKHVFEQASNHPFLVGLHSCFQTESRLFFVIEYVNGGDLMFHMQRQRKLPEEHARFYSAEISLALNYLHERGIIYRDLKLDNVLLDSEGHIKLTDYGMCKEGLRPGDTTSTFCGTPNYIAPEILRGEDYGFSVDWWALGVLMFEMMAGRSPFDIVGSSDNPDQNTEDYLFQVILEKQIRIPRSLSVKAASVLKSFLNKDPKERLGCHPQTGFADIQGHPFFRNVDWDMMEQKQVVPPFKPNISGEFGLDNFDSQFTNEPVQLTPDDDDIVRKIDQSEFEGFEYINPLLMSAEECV

## Nc1ncc(-c2cccc([N+](=O)[O-])c2F)cc1-c1ccc2c(c1)CCNC2=O [Compound I-9, 6-(2-amino-5-(2-fluoro-3-nitrophenyl)pyridin-3-yl)-3,4-dihydroisoquinolin-1(2H)-one]
[1]; read-out: % inhibition (range)
  inhibition at 10 µM: 0%
[1]; read-out: inhibition (10 μM)
  inhibition at 10 µM: -24.7%
[2]; 10 μM
  % inhibition (range): 0.0%
[2]
  inhibition (10 μM): −35.7%
[3]; read-out: % inhibition (range)
  inhibition at 10 µM: 0%
[3]; read-out: inhibition (10 μM)
  inhibition at 10 µM: 16.3%
[4]; read-out: % inhibition (range)
  inhibition at 10 µM: 75 to 90%
[4]; read-out: inhibition (10 μM)
  inhibition at 10 µM: 88.9%
[5]; read-out: % inhibition (range)
  inhibition at 10 µM: 0%
[5]; read-out: inhibition (10 μM)
  inhibition at 10 µM: -44.3%
[6]; read-out: % inhibition (range)
  inhibition at 10 µM: > 90%
[6]; read-out: inhibition (10 μM)
  inhibition at 10 µM: 93%
[7]; read-out: % inhibition (range)
  inhibition at 10 µM: 0%
[7]; read-out: inhibition (10 μM)
  inhibition at 10 µM: -14.9%
[8]
  inhibition at 10 µM: 44.2%
[9]; read-out: % inhibition (range)
  inhibition at 10 µM: 0%
[9]; read-out: inhibition (10 μM)
  inhibition at 10 µM: -18.4%
[10]; read-out: % inhibition (range)
  inhibition at 10 µM: 50 to 75%
[10]; read-out: inhibition (10 μM)
  inhibition at 10 µM: 72.7%
[11]; read-out: % inhibition (range)
  inhibition at 10 µM: 0%
[11]; read-out: inhibition (10 μM)
  inhibition at 10 µM: -19.6%
[12]; read-out: % inhibition (range)
  inhibition at 10 µM: 50 to 75%
[12]; read-out: inhibition (10 μM)
  inhibition at 10 µM: 67%
[13]; read-out: % inhibition (range)
  inhibition at 10 µM: 0%
[13]; read-out: inhibition (10 μM)
  inhibition at 10 µM: 30.6%
[14]; read-out: % inhibition (range)
  inhibition at 10 µM: 0%
[14]; read-out: inhibition (10 μM)
  inhibition at 10 µM: -23%
[15]; read-out: % inhibition (range)
  inhibition at 10 µM: 0%
[15]; read-out: inhibition (10 μM)
  inhibition at 10 µM: -11.8%
[16]; 10 μM
  % inhibition (range): >90%
[16]
  inhibition (10 μM): 96.7%
[17]; read-out: % inhibition (range)
  inhibition at 10 µM: 50 to 75%
[17]; read-out: inhibition (10 μM)
  inhibition at 10 µM: 71.8%
[18]; read-out: % inhibition (range)
  inhibition at 10 µM: 0%
[18]; read-out: inhibition (10 μM)
  inhibition at 10 µM: -36.7%
[19]; read-out: % inhibition (range)
  inhibition at 10 µM: 0%
[19]; read-out: inhibition (10 μM)
  inhibition at 10 µM: 33.1%
[20]
  inhibition at 10 µM: 55.2%
[21]; read-out: % inhibition (range)
  inhibition at 10 µM: 0%
[21]; read-out: inhibition (10 μM)
  inhibition at 10 µM: -14.1%
[22]; read-out: % inhibition (range)
  inhibition at 10 µM: 75 to 90%
[22]; read-out: inhibition (10 μM)
  inhibition at 10 µM: 79.5%
[23]; read-out: % inhibition (range)
  inhibition at 10 µM: > 90%
[23]; read-out: inhibition (10 μM)
  inhibition at 10 µM: 97.2%
[24]; read-out: % inhibition (range)
  inhibition at 10 µM: 0%
[24]; read-out: inhibition (10 μM)
  inhibition at 10 µM: -17.3%
[25]; read-out: % inhibition (range)
  inhibition at 10 µM: 75 to 90%
[25]; read-out: inhibition (10 μM)
  inhibition at 10 µM: 75.2%
[26]; read-out: % inhibition (range)
  inhibition at 10 µM: 0%
[26]; read-out: inhibition (10 μM)
  inhibition at 10 µM: -12.4%
[27]; read-out: % inhibition (range)
  inhibition at 10 µM: 0%
[27]; read-out: inhibition (10 μM)
  inhibition at 10 µM: -22.9%
[28]; read-out: % inhibition (range)
  inhibition at 10 µM: 0%
[28]; read-out: inhibition (10 μM)
  inhibition at 10 µM: 18.5%
[29]; read-out: % inhibition (range)
  inhibition at 10 µM: 50 to 75%
[29]; read-out: inhibition (10 μM)
  inhibition at 10 µM: 74.6%
[30]; read-out: % inhibition (range)
  inhibition at 10 µM: 75 to 90%
[30]; read-out: inhibition (10 μM)
  inhibition at 10 µM: 78.7%
[31]; 10 μM
  % inhibition (range): 0.0%
[31]
  inhibition (10 μM): 33.0%
[32]; 10 μM
  % inhibition (range): 0.0%
[32]
  inhibition (10 μM): −24.2%
[33]; read-out: % inhibition (range)
  inhibition at 10 µM: 50 to 75%
[33]; read-out: inhibition (10 μM)
  inhibition at 10 µM: 51.6%
